Assay results published in patent US20190328749A1, “FORMULATION OF LONG-ACTING LEVONORGESTREL BUTANOATE INJECTABLE DEPOT SUSPENSION” (Eastern Virginia Medical School, priority 2016, published 2019).
Values joined by “and” are separate entries in the source; they are usually repeats but may differ in a detail not shown here. Equal entries are not always repeated.

How the values were obtained:
[1] = uniformity of LB particle size distribution and concentration after dispersion/mixing and homogenization; assay type: physicochemical; conditions: post LB dispersion in Part II & mixing with Part I
[2] = particle size distribution of micronized LB drug substance (dry milled, wet milled, spray dried); assay type: physicochemical
Description: FIG. 3 and FIG. 4 show typical particle size distributions and photomicrographs of LB drug substance prepared by dry milling. The dry milled LB powder was dispersed in 1% polysorbate 20 and three replicate measurements of the particle size distribution were made.
FIG. 5 and FIG. 6 show typical particle size distributions and photomicrographs of LB drug substance prepared by wet milling. After wet milling for 15 minutes, the LB suspension was sampled and three replicate measurements of the particle size distribution were made.
FIG. 7 and FIG. 8 show typical particle size distributions and photomicrographs of LB drug substance prepared by spray drying processes. The spray dried LB powder was dispersed in 0.5% polysorbate 80 and three replicate measurements of the particle size distribution were made.

ovulation [3] = assay: monkey study, time to return to ovulation / duration of action; assay type: in vivo, non-human primates
ovulation [4] = conditions: women, single dose of 50 mg, micronized aqueous suspension, injected; cited from earlier work
[5] = dry milled LB powder dispersed in 1% polysorbate 20, replicate runs
[6] = spray dried LB powder dispersed in 0.5% polysorbate 80, replicate runs
[7] = wet milled 15 minutes, LB suspension, replicate runs

SMILES: C#C[C@]1(OC(=O)CCC)CC[C@H]2[C@@H]3CCC4=CC(=O)CC[C@@H]4[C@H]3CC[C@@]21CC [LB, Levonorgestrel Butanoate]
- Assay Results - Concentration of LB, Average ([1]; 15 minutes): 20.03 mg/mL
- Particle Size D50 ([1]; 15 minutes): 6.3 μm
- Particle Size VMD ([1]; 15 minutes): 8.1 μm
- particle size D10 ([1]; 15 minutes): 1.4 μm
- particle size D90 ([1]; 15 minutes): 17.1 μm
- Assay Results - Concentration of LB, Average ([1]; 30 minutes): 20.00 mg/mL
- Particle Size D50 ([1]; 30 minutes): 6.3 μm
- Particle Size VMD ([1]; 30 minutes): 8.1 μm
- particle size D10 ([1]; 30 minutes): 1.4 μm
- particle size D90 ([1]; 30 minutes): 17.2 μm
- particle size D10 [2, 5]: 5.3 μm and 5.1 μm and 4.3 μm
- particle size D90 [2, 5]: 89.5 μm and 62.2 μm and 65.0 μm
- particle size Mean [2, 5]: 38.6 μm and 30.7 μm and 29.9 μm
- particle size Median [2, 5]: 23.1 μm and 22.7 μm and 18.6 μm
- particle size D10 [2, 6]: 8.3 μm and 8.2 μm (2×)
- particle size D90 [2, 6]: 24.7 μm and 24.8 μm (2×)
- particle size Median [2, 6]: 15.8 μm
- particle size D10 [2, 7]: 5.4 μm (2×) and 4.3 μm
- particle size D90 [2, 7]: 47.3 μm and 50.9 μm and 54.9 μm
- particle size Mean [2, 7]: 23.2 μm and 25.2 μm and 26.9 μm
- particle size Median [2, 7]: 18.0 μm and 18.4 μm and 21.0 μm
- time to return to ovulation (ovulation [3]): increases with increasing particle size of LB in the formulation and in many cases exceeding six months
- suppression of ovulation, duration (ovulation [4]): 5-6 months
